Data reported in patent US9409892B2, “4-hydroxy-isoquinoline compounds as HIF hydroxylase inhibitors” (FIBROGEN, INC., priority 2012, dated 2016).

Key:
[1] = biological target: PHD2 (EGLN1) (Homo sapiens (Human), UniProt Q9GZT9); test: HIF-PH assay (14CO2 capture), PHD2 enzyme inhibition; format: biochemical; settings: Table 1; individual measurement; read-out: IC50 (μM) PHD2
[2] = biological target: PHD1 (EGLN2) (Homo sapiens (Human), UniProt Q96KS0); test: HIF-PH assay (14CO2 capture), PHD1 enzyme inhibition; format: biochemical; settings: Table 1; for IC50: individual measurement, read-out: IC50 (μM) PHD1; for PHD2/PHD1: ratio of the IC50 of the compound for each enzyme
Sequence of PHD1 (EGLN2) (Q96KS0 whole entry): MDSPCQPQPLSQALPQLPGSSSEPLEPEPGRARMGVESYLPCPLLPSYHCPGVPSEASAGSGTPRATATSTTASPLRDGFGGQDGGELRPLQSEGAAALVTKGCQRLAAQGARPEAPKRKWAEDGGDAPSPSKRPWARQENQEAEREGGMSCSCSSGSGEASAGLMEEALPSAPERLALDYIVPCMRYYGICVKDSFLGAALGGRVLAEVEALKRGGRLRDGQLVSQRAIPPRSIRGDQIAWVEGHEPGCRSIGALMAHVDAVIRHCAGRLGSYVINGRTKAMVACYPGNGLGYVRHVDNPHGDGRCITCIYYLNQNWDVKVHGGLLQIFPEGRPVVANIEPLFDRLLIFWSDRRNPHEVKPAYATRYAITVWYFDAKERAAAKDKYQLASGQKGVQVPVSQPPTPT

Sequence of PHD2 (EGLN1) (Q9GZT9 whole entry): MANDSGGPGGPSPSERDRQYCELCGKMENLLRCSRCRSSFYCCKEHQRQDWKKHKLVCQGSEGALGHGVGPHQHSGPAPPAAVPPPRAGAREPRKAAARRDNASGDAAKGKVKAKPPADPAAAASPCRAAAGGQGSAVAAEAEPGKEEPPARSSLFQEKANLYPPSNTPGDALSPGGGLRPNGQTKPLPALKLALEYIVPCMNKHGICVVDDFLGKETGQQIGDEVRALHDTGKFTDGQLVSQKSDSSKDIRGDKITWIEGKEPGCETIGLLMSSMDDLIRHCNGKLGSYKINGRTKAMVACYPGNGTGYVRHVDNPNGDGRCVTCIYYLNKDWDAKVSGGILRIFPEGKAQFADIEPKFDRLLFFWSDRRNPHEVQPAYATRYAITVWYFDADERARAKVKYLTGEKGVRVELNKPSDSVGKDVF

SMILES | IC50 [1] [µM] | IC50 [2] [µM] | PHD2/PHD1 [2]
O=C(O)CCNC(=O)c1nc(C(F)(F)F)c2cc(Oc3ccccc3)ccc2c1O [Compound 145, 3-[(4-Hydroxy-7-phenoxy-1-trifluoromethyl-isoquinoline-3-carbonyl)-amino]-propionic acid] | 101 | 18.6 | 5
CC(C)(CNC(=O)c1ncc2cc(Cc3ccccc3)ccc2c1O)C(=O)O [Compound 146, 3-[(7-Benzyl-4-hydroxy-isoquinoline-3-carbonyl)-amino]-2,2-dimethyl-propionic acid] | 181 | 23.7 | 8
O=C(O)CCCCNC(=O)c1ncc2cc(-c3ccc(F)cc3)ccc2c1O [Compound 149, 5-{[7-(4-Fluoro-phenyl)-4-hydroxy-isoquinoline-3-carbonyl]-amino}-pentanoic acid] | 87 | 18.5 | 5
CC(C)(CNC(=O)c1ncc2cc(-c3ccc(F)cc3)ccc2c1O)C(=O)O [Compound 150, 3-{[7-(4-Fluoro-phenyl)-4-hydroxy-isoquinoline-3-carbonyl]-amino}-2,2-dimethyl-propionic acid] | 114 | 22.9 | 5
Cn1nc(C(F)(F)F)cc1-c1nc(C(=O)NCC(C)(C)C(=O)O)c(O)c2ccc(Oc3ccccc3)cc12 [Compound 151, 3-{[4-Hydroxy-1-(2-methyl-5-trilluoromethyl-2H-pyrazol-3-yl)-7-phenoxy-isoquinoline-3-carbonyl]-amino}-2,2-dimethyl-propionic acid] | 111 | 12.8 | 9
CC(C)(CNC(=O)c1c(O)c2ccc(Oc3ccccc3)cc2c(C#N)[n+]1[O-])C(=O)O [Compound 157, 3-(2-Carboxy-2-methylpropylcarbamoyl)-1-cyano-4-hydroxy-7-phenoxyisoquinoline 2-oxide] | 200 | 13.6 | 15
CC(C)(CNC(=O)c1nc(C#N)c2cc(S(=O)(=O)C3CCCCC3)ccc2c1O)C(=O)O [Compound 160, 3-[(1-Cyano-7-cyclohexanesulfonyl-4-hydroxy-isoquinoline-3-carbonyl)-amino]-2,2-dimethyl-propionic acid] | 200 | 17.4 | 12
N#Cc1nc(C(=O)NCC2(C(=O)O)CCC2)c(O)c2ccc(S(=O)(=O)C3CCCCC3)cc12 [Compound 161, 1-{[(1-Cyano-7-cyclohexanesulfonyl-4-hydroxy-isoquinoline-3-carbonyl)-amino]-methyl}-cyclobutanecarboxylic acid] | 200 | 19.8 | 10
N#Cc1nc(C(=O)NCCC[C@H](N)C(=O)O)c(O)c2ccc(Oc3ccccc3)cc12.O=C(O)C(F)(F)F [Compound 163, (S)-2-[Amino-5-(1-cyano-4-hydroxy-7-phenoxy-isoquinoline-3-carbonyl)-amino]-pentanoic acid 2,2,2-trifluoroacetic acid (1:1)] | > 200 | 43.6 | 5

Stronger by IC50 [1], values ahead:

IC50 [1] [µM] | IC50 [2] [µM] | PHD2/PHD1 [2] | SMILES
31.7 | 6.4 | 5 | O=C(O)CCNC(=O)c1nc(-c2ccccc2)c2cc(Oc3ccccc3)ccc2c1O [Compound 144, 3-[(4-Hydroxy-7-phenoxy-1-phenyl-isoquinoline-3-carbonyl)-amino]-propionic acid]
77 | 5.09 | 15 | O=C(O)CCCCNC(=O)c1nc(-c2cncc(F)c2)c2cc(Oc3ccccc3)ccc2c1O [Compound 147, 5-{[1-(5-Fluoro-pyridin-3-yl)-4-hydroxy-7-phenoxy-isoquinoline-3-carbonyl]-amino}-pentanoic acid]
24.5 | 2.88 | 9 | O=C(O)CCCNC(=O)c1ncc2cc(-c3ccc(F)cc3)ccc2c1O [Compound 148, 4-{[7-(4-Fluoro-phenyl)-4-hydroxy-isoquinoline-3-carbonyl]-amino}-butyric acid]
55.1 | 4.35 | 13 | CC(C)(CC(=O)O)NC(=O)c1nc(C#N)c2cc(OCc3ccccc3)ccc2c1O [Compound 152, 3-[(7-Benzyloxy-1-cyano-4-hydroxy-isoquinoline-3-carbonyl)-amino]-3-methyl-butyric acid]
30.5 | 2.58 | 12 | CC(C)(CNC(=O)c1nc(C#N)c2cc(OCc3ccccc3)ccc2c1O)C(=O)O [Compound 153, 3-[(7-Benzyloxy-1-cyano-4-hydroxy-isoquinoline-3-carbonyl)-amino]-2,2-dimethyl-propionic acid]
1.9 | 0.11 | 18 | N#Cc1nc(C(=O)NCC2(C(=O)O)CCC2)c(O)c2ccc(Sc3ccccc3)cc12 [Compound 154, 1-{[(1-Cyano-4-hydroxy-7-phenylsulfanyl-isoquinoline-3-carbonyl)-amino]-methyl}-cyclobutanecarboxylic acid]
42.1 | 5.25 | 8 | Cc1ccccc1Oc1ccc2c(C#N)nc(C(=O)NCC(C)(C)C(=O)O)c(O)c2c1 [Compound 155, 3-[(1-Cyano-4-hydroxy-6-o-tolyloxy-isoquinoline-3-carbonyl)-amino]-2,2-dimethyl-propionic acid]
23.5 | 1.49 | 16 | CC(C)(CNC(=O)c1nc(C#N)c2cc(OC3CCCCC3)ccc2c1O)C(=O)O [Compound 156, 3-[(1-Cyano-7-cyclohexyloxy-4-hydroxy-isoquinoline-3-carbonyl)-amino]-2,2-dimethyl-propionic acid]
21 | 1.66 | 13 | N#Cc1c2cc(Oc3ccccc3)ccc2c(O)c(C(=O)NCCCC(=O)O)[n+]1[O-] [Compound 158, 3-(3-Carboxypropylcarbamoyl)-1-cyano-4-hydroxy-7-phenoxyisoquinoline 2-oxide]
7.9 | 0.91 | 9 | N#Cc1nc(C(=O)NCC2(C(=O)O)CCC2)c(O)c2ccc(OC3CCCCC3)cc12 [Compound 159, 1-{[(1-Cyano-7-cyclohexyloxy-4-hydroxy-isoquinoline-3-carbonyl)-amino]-methyl}-cyclobutanecarboxylic acid]
24.1 | 2.35 | 10 | CC(C)(CNC(=O)c1nc(C#N)c2cc(NC(=O)NCc3ccccc3)ccc2c1O)C(=O)O [Compound 162, 3-{[7-(3-Benzyl-ureido)-1-cyano-4-hydroxy-isoquinoline-3-carbonyl]-amino}-2,2-dimethyl-propionic acid]
18.6 | 1.35 | 14 | CC(C)(CNC(=O)c1nc(C#N)c2cc(Cc3ccccc3)ccc2c1O)C(=O)O [Compound 164, 3-[(7-Benzyl-1-cyano-4-hydroxy-isoquinoline-3-carbonyl)-amino]-2,2-dimethyl-propionic acid]
28.1 | 1.51 | 19 | N#Cc1nc(C(=O)NC(CC(=O)O)c2cccc(Cl)c2)c(O)c2ccc(Oc3ccccc3)cc12 (stereo not drawn) [Compound 165, 3-(3-Chloro-phenyl)-3-[(1-cyano-4-hydroxy-7-phenoxy-isoquinoline-3-carbonyl)-amino]-propionic acid]
